Experimental data reported in ChEMBL document CHEMBL3407452, “Linear and branched alkyl-esters and amides of gallic acid and other (mono-, di- and tri-) hydroxy benzoyl derivatives as promising anti-HCV inhibitors” (Eur J Med Chem, 2015).
Active and inactive are the calls of the source. The rule behind the calls is not given here.

Assays:
Felid alphaherpesvirus 1 = test: Antiviral activity against feline herpesvirus; format: functional, organism-based
Hepatitis C virus = test: Antiviral activity against HCV genotype 1b I389luc-ubi-neo/NS3-3'/5.1 replicons infected in human Huh5-2 HCV subgenomic replicon-containing cells assessed as reduction in virus replication after 3 days by luciferase reporter gene assay; format: functional, Hepacivirus hominis; conditions: Hepatitis C virus, genotype 1b, Huh-5-2, 72 h; for EC50: read-out: EC50
[1] = Cytotoxicity against human CEM cells assessed as inhibition of cell proliferation; format: cell-based; conditions: CEM cells (CCRF-CEM)
Influenza A virus = test: Antiviral activity against influenza A virus (H1N1); format: functional, organism-based
Influenza A virus H3N2 = test: Antiviral activity against influenza A virus H3N2; format: functional, organism-based
Chikungunya virus = test: Antiviral activity against chikungunya virus; format: functional
Feline coronavirus = test: Antiviral activity against feline coronavirus; format: functional, organism-based
Coxsackievirus B4 = test: Antiviral activity against human coxsackievirus B4; format: functional, organism-based
Sindbis virus = test: Antiviral activity against sindbis virus; format: functional, organism-based
Reovirus sp. = test: Antiviral activity against reovirus; format: functional, organism-based
[2] = Cytotoxicity against human Huh5-2 cells after 72 hrs by MTS assay; format: cell-based, Huh-5-2
Human respirovirus 3 = test: Antiviral activity against human parainfluenza virus 3; format: functional, organism-based
Punta Toro virus = test: Antiviral activity against punta toro virus; format: functional, organism-based
[3] = tested on: Respiratory syncytial virus; test: Antiviral activity against RSV; format: functional, organism-based
[4] = tested on: Human immunodeficiency virus 2; test: Antiviral activity against HIV2 ROD infected in human CEM cells assessed as reduction in virus-induced cytopathicity after 4 to 5 days by microscopy based syncytium cell formation assay; format: functional, organism-based, ISOLATE ROD, CCRF-CEM; conditions: Human immunodeficiency virus 2, ISOLATE ROD, CCRF-CEM; read-out: EC50
[5] = tested on: Human immunodeficiency virus 1; test: Antiviral activity against HIV1 3B infected in human CEM cells assessed as reduction in virus-induced cytopathicity after 4 to 5 days by microscopy based syncytium cell formation assay; format: functional, organism-based, CCRF-CEM; conditions: Human immunodeficiency virus 1, 3B, CCRF-CEM; read-out: EC50
Vaccinia virus = test: Antiviral activity against vaccinia virus; format: functional, organism-based; conditions: Orthopoxvirus vaccinia
[6] = tested on: Vesicular stomatitis virus; test: Antiviral activity against vesicular stomatitis virus; format: functional, organism-based

Structure (SMILES) | Activity (Felid alphaherpesvirus 1) | EC50 (Hepatitis C virus) [µM] | CC50 [1] [µM] | Activity (Influenza A virus) | Activity (Influenza A virus H3N2) | Activity (Chikungunya virus) | Activity (Feline coronavirus) | Activity (Coxsackievirus B4) | Activity (Sindbis virus) | Activity (Reovirus sp.) | CC50 at 72 h [2] [µM] | Activity (Human respirovirus 3) | Activity (Punta Toro virus) | Activity [3] | EC50 [4] [µM] | EC50 [5] [µM] | Activity (Vaccinia virus) | Activity [6] | EC90 (Hepatitis C virus) [µM]
O=C(NCCCCCCCCCCNC(=O)c1cc(O)c(O)c(O)c1)c1cc(O)c(O)c(O)c1 | inactive | 20 | 86 | inactive | inactive | inactive | inactive | inactive | inactive | inactive | 47 | inactive | inactive | inactive | > 50 | > 50 | inactive | inactive | –
O=C(OCCCCCCOC(=O)c1cc(O)c(O)c(O)c1)c1cc(O)c(O)c(O)c1 | inactive | 16 | 22 | inactive | inactive | inactive | inactive | inactive | inactive | inactive | > 50 | inactive | inactive | inactive | ≥ 10 | ≥ 10 | inactive | inactive | –
CCCCCCOC(=O)c1cc(O)c(O)c(O)c1 [HEXYL GALLATE] | inactive | 9 | 14 | inactive | inactive | inactive | inactive | inactive | inactive | inactive | > 50 | inactive | inactive | inactive | 6.6 | 5.4 | inactive | inactive | > 50
CCOC(=O)c1cc(O)c(O)c(O)c1 [ETHYLGALLATE] | inactive | 19 | 23 | inactive | inactive | inactive | inactive | inactive | inactive | inactive | 45 | inactive | inactive | inactive | > 10 | > 10 | inactive | inactive | > 45
O=C(NCCCCCCCCNC(=O)c1ccc(O)c(O)c1O)c1ccc(O)c(O)c1O | inactive | 25 | 82 | inactive | inactive | inactive | inactive | inactive | inactive | inactive | 34 | inactive | inactive | inactive | > 50 | > 50 | inactive | inactive | –
O=C(NCCCCCCCCCCCCNC(=O)c1ccccc1O)c1ccccc1O | inactive | 4.7 | 248 | inactive | inactive | inactive | inactive | inactive | inactive | inactive | > 6.7 | inactive | inactive | inactive | > 250 | > 250 | inactive | inactive | > 6.7
CCCCOC(=O)c1cc(O)c(O)c(O)c1 [BUTYL GALLATE] | inactive | 13 | 55 | inactive | inactive | inactive | inactive | inactive | inactive | inactive | 29 | inactive | inactive | inactive | > 10 | > 10 | inactive | inactive | > 29
O=C(NCCCCCCNC(=O)c1ccc(O)c(O)c1O)c1ccc(O)c(O)c1O | inactive | 14 | 102 | inactive | inactive | inactive | inactive | inactive | inactive | inactive | 32 | inactive | inactive | inactive | > 50 | > 50 | inactive | inactive | –
O=C(OCCCCOC(=O)c1cc(O)c(O)c(O)c1)c1cc(O)c(O)c(O)c1 | inactive | 39 | 21 | inactive | inactive | inactive | inactive | inactive | inactive | inactive | > 50 | inactive | inactive | inactive | > 10 | > 10 | inactive | inactive | > 50
O=C(OCCCCCCCCOC(=O)c1cc(O)c(O)c(O)c1)c1cc(O)c(O)c(O)c1 | inactive | 17 | 13 | inactive | inactive | inactive | inactive | inactive | inactive | inactive | 80 | inactive | inactive | inactive | > 10 | > 10 | inactive | inactive | 55
CCC[C@H](NC(=O)[C@@H]1[C@H]2CCC[C@H]2CN1C(=O)[C@@H](NC(=O)[C@@H](NC(=O)c1cnccn1)C1CCCCC1)C(C)(C)C)C(=O)C(=O)NC1CC1 [TELAPREVIR] | – | 2.8 | – | – | – | – | – | – | – | – | 47 | – | – | – | – | – | – | – | –
COc1ccc(C(=O)NCCCCCCCCCCCCNC(=O)c2ccc(OC)c(OC)c2OC)c(OC)c1OC | – | > 3.5 | – | – | – | – | – | – | – | – | 5.4 | – | – | – | – | – | – | – | –
O=C(NCCCCNC(=O)c1ccccc1O)c1ccccc1O | inactive | 11 | 35 | inactive | inactive | inactive | inactive | inactive | inactive | inactive | > 49 | inactive | inactive | inactive | – | > 10 | inactive | inactive | –
O=C(NCCN(CCNC(=O)c1cc(O)c(O)c(O)c1)CCNC(=O)c1cc(O)c(O)c(O)c1)c1cc(O)c(O)c(O)c1 | inactive | > 2.9 | 54 | inactive | inactive | inactive | inactive | inactive | inactive | inactive | > 2.9 | inactive | inactive | inactive | – | 10 | inactive | inactive | > 2.9
O=C(O)c1cc(O)c(O)c(O)c1 [GALLIC ACID] | inactive | – | > 250 | inactive | inactive | inactive | inactive | inactive | inactive | inactive | – | inactive | inactive | inactive | > 50 | > 50 | inactive | inactive | –
O=C(NCCCCCCCCNC(=O)c1cc(O)c(O)c(O)c1)c1cc(O)c(O)c(O)c1 | inactive | 23 | 51 | inactive | inactive | inactive | inactive | inactive | inactive | inactive | > 50 | inactive | inactive | inactive | – | > 10 | inactive | inactive | > 50
